Measured values from PubChem BioAssay AID743443 (The Scripps Research Institute Molecular Screening Center, 2014).
Activity calls are given as the source filed them. The rule behind the calls is not given here.

The molecules below were run against Sphingosine 1-phosphate receptor 5 (Homo sapiens) (UniProt Q9H228) (assay: S1P5 receptor antagonists, late-stage follow-up, selectivity assay for S1PR3 antagonist project, cell-based, FRET, dose response (AID 743443)).
Sequence of Sphingosine 1-phosphate receptor 5 (Homo sapiens) (Q9H228 whole entry, looked up): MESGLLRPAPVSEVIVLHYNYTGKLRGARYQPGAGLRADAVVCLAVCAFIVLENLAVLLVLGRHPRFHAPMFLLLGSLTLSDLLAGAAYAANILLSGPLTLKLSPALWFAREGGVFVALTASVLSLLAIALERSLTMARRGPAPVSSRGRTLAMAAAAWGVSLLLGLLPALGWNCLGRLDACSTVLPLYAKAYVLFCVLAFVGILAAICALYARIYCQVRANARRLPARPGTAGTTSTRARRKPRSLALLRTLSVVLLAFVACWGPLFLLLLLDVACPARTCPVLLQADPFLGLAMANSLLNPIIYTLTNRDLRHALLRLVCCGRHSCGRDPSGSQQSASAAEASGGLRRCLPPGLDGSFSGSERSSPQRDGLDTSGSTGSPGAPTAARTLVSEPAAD
`O=C(NC(c1nc(-c2ccccc2)no1)C1CCOCC1)c1ccc(Cl)c(Cl)c1` (stereo not given) was tested, and the IC50 was > 28.2 µM (inactive).
In the case of `O=C(NC(c1ccc(Cl)cc1)c1nc(-c2ccccc2)no1)c1ccc(Cl)c(Cl)c1` (stereo not given), the IC50 is reported as > 28.2 µM (inactive).
Work on `O=C(c1cccc(Cl)c1)N(CCO)C(c1ccc(Cl)c(Cl)c1)c1nc(-c2ccccc2)no1` (stereo not given) yielded an IC50 of 9.9 µM.
`O=C(NC(c1ccc(Cl)cc1)c1nc(-c2ccccc2)no1)c1cccc(Br)c1` (stereo not given) was tested, and the IC50 was “inactive”.
In the case of `O=C(NC(c1ccc(Cl)c(Cl)c1)c1nc(-c2ccccc2)no1)c1cccc(Cl)c1` (stereo not given), the IC50 is reported as “inactive”.
`O=C(NC(c1ccc(Cl)c(Cl)c1)c1nc(-c2ccccc2)no1)c1ccc(Cl)c(Cl)c1` (stereo not given) was tested, and the IC50 was > 28.2 µM (inactive).
With `COc1ccc(C(=O)NC(c2ccccc2)c2nc(-c3ccccc3)no2)cc1` (stereo not given) the IC50 was > 28.2 µM (inactive).
For `Cc1ccc(C(=O)NC(c2ccccc2)c2nc(-c3ccccc3)no2)cc1` (stereo not given), the IC50 was > 28.2 µM (inactive).
In the case of `O=C(NC(c1cccc(Cl)c1)c1nc(-c2ccccc2)no1)c1cc(Cl)cc(Cl)c1` (stereo not given), the IC50 is reported as > 28.2 µM (inactive).
For `O=C(NC(c1ccc(Cl)cc1)c1nc(-c2ccccc2)no1)c1cccc(Cl)c1` (stereo not given), the IC50 was > 28.2 µM (inactive).
For `O=C(NC(c1ccccc1)c1nc(-c2ccccc2)no1)c1cccc(Cl)n1` (stereo not given), the IC50 was “inactive”.
With `O=C(NC(c1ccc(Cl)c(Cl)c1)c1nc(-c2ccccc2)no1)c1ccc(Cl)cc1` (stereo not given) the IC50 was “inactive”.
With `O=C(NC(c1ccc(Cl)cc1)c1nc(-c2cccc(Cl)c2)no1)c1cccc(Cl)c1` (stereo not given) the IC50 was > 28.2 µM (inactive).
In the case of `O=C(NC(c1ccccc1)c1nc(-c2ccccc2)no1)c1cccc(Br)c1` (stereo not given), the IC50 is reported as > 28.2 µM (inactive).
With `CCc1ccc(C(NC(=O)c2cccc(Cl)c2)c2nc(-c3ccccc3)no2)cc1` (stereo not given) the IC50 was > 28.2 µM (inactive).
`O=C(NC(c1cccc(Cl)c1)c1nc(-c2ccccc2)no1)c1ccc(Cl)c(Cl)c1` (stereo not given) was tested, and the IC50 was > 28.2 µM (inactive).
`O=C(NC(c1ccc(Cl)cc1)c1nc(-c2ccccc2)no1)c1ccc(Cl)c(Br)c1` (stereo not given) was tested, and the IC50 was > 28.2 µM (inactive).
With `O=C(NC(c1ccccc1)c1nc(-c2ccccc2)no1)c1cccc(Cl)c1` (stereo not given) the IC50 was > 28.2 µM (inactive).
`O=C(NC(c1cccc(Cl)c1)c1nc(-c2ccccc2)no1)c1cccc(Cl)c1` (stereo not given) showed an IC50 of 5.1 µM.
For `O=C(NC(c1ccc(Cl)cc1)c1nc(-c2ccccn2)no1)c1cccc(Cl)c1` (stereo not given), the IC50 was > 28.2 µM (inactive).
In the case of `O=C(NC(c1ccc(Br)cc1)c1nc(-c2ccccc2)no1)c1ccc(Cl)c(Cl)c1` (stereo not given), the IC50 is reported as > 28.2 µM (inactive).
For `O=C(NC(c1ccc(Cl)c(Cl)c1)c1nc(-c2ccccc2)no1)c1ccccc1` (stereo not given), the IC50 was > 28.2 µM (inactive).
With `O=C(NC(Cc1ccccc1)c1nc(-c2ccccc2)no1)c1cccc(Cl)c1` (stereo not given) the IC50 was “inactive”.
`O=C(NC(c1ccccc1)c1nc(-c2ccccc2)no1)c1ccc(Cl)cc1` (stereo not given) was tested, and the IC50 was > 28.2 µM (inactive).
With `N#Cc1ccc(C(=O)NC(c2ccc(Cl)c(Cl)c2)c2nc(-c3ccccc3)no2)cc1` (stereo not given) the IC50 was “inactive”.
